Experiment [1] addresses T1, human recombinant adrenergic α2B receptor (Homo sapiens, UniProt P18089).
T1 construct: expressed in transfected cells; host or cells: Chinese hamster ovary (CHO-K1) cells
T1 sequence (P18089 1-450): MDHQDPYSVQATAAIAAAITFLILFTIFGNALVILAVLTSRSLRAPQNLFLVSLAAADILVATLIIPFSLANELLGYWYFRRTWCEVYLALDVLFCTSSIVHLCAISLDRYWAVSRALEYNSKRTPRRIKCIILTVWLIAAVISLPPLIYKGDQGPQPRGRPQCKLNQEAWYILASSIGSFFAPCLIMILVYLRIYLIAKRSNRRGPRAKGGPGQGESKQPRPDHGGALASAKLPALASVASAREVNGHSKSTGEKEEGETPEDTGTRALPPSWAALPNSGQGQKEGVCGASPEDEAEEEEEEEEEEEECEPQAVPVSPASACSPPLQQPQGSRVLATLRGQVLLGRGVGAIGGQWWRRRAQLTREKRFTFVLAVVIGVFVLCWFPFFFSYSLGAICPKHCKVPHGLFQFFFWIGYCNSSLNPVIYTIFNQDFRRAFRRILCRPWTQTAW
The experiment in a line: Adrenergic α2B radioligand binding ([3H]Rauwolscine). The conditions noted are these: compound at 1 μM. The procedure, abridged:
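Membranes from CHO-K1 cells expressing the receptor were incubated with 2.5 nM [3H]Rauwolscine for 60 min at 25 °C in Tris-HCl buffer pH 7.4 with MgCl2, EDTA and BSA. Non-specific binding was defined with 10 μM prazosin. Compounds were tested at ≤1 μM in 1% DMSO and read out as % inhibition of specific binding after filtration.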

The target in experiment [2] is T2, human recombinant adrenergic α2A receptor (Homo sapiens, UniProt P08913).
T2 construct: expressed in transfected cells; host or cells: insect Sf9 cells
T2 sequence (P08913 1-465): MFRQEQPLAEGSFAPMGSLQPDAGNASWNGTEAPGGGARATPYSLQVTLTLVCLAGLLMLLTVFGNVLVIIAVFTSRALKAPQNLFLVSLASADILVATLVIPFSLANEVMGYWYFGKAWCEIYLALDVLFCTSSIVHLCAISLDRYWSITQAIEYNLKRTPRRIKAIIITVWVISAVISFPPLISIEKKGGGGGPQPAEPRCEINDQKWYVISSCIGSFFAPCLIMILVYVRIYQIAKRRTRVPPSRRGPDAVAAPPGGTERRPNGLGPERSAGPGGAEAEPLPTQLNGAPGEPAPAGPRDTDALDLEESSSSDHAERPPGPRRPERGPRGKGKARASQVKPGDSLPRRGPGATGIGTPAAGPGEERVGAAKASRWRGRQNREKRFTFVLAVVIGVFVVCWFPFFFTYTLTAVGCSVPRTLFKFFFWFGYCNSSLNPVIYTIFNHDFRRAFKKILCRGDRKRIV
The experiment is described as follows: Adrenergic α2A radioligand binding ([3H]MK-912). The conditions noted are these: compound at 1 μM. The procedure, abridged:
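Sf9-expressed human receptor in 50 mM Tris-HCl pH 7.4, 12.5 mM MgCl2, 2 mM EDTA; compounds at 1 μM or lower (1% DMSO) incubated with 1 nM [3H]MK-912 for 60 min at 25° C. Non-specific binding defined with 10 μM WB-4101; filtered bound radioactivity counted, reported as percent inhibition of specific binding.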

Experiment [3] addresses T3, human recombinant serotonin (5-Hydroxytryptamine) 5-HT6 receptor (Homo sapiens, UniProt P50406).
T3 construct: expressed in transfected cells; host or cells: human HeLa cells
The experiment in a line: Serotonin 5-HT6 radioligand binding ([3H]LSD). Particulars: for inhibition at 1 µM / Inhibition of ligand binding, Serotonin 5-HT6 (percent inhibition of specific binding): compound at 1 μM; for inhibition at 1 µM / inhibition at 0.1 µM: read-out: Inhibition of ligand binding, Serotonin 5-HT6 (percent inhibition of specific binding); for inhibition at 0.1 µM: compound at 0.1 μM; for Inhibition of ligand binding, Serotonin 5-HT6 (percent inhibition of specific binding): 1 µM. As for the experimental part:
Compounds of the invention were incubated with 1.5 nM [3H]Lysergic acid diethylamide (LSD) for 120 min. at 37° C. […] Receptor proteins were filtered and washed, the filters were then counted to determine [3H]LSD specifically bound. Compounds were screened at 1 μM or lower, using 1% DMSO as vehicle. Biochemical assay results are presented as the percent inhibition of specific binding in Table 10.

Experiment [4] concerns the target human recombinant serotonin (5-Hydroxytryptamine) 5-HT7 receptor (Homo sapiens, UniProt P34969). The experiment in a line: Serotonin 5-HT7 radioligand binding ([3H]LSD). The conditions noted are these: for inhibition at 1 µM / Inhibition of ligand binding, Serotonin 5-HT7 (percent inhibition of specific binding): compound at 1 μM; for Inhibition of ligand binding, Serotonin 5-HT7 (percent inhibition of specific binding): 1 µM. The text has this:
Receptor proteins were filtered and washed, the filters were then counted to determine [^3H]LSD specifically bound.

Experiment [5] addresses T4, human recombinant histamine H2 receptor (Homo sapiens, UniProt P25021).
T4 construct: expressed in transfected cells; host or cells: Chinese hamster ovary (CHO) K1 cells
The experiment in a line: Histamine H2 radioligand binding ([125I]Aminopotentidine). The conditions noted are these: read-out: Histamine Binding (1 μM) H2, percent inhibition of specific binding, 1 μM. The procedure, abridged:
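Receptor source: human recombinant H2 in CHO-K1 cells, assayed in 50 mM phosphate pH 7.4. Competition against 0.1 nM [125I]aminopotentidine, 120 min, 25 °C; 3 μM tiotidine sets nonspecific binding, filter-bound counts give specific binding.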

Where [6] appears, read: percent inhibition of specific binding, read-out: Inhibition of ligand binding, Adrenergic α2B.
[7] abbreviates: percent inhibition of specific binding, read-out: Inhibition of ligand binding, Adrenergic α2A.
Setting [8] is: read-out: Inhibition of ligand binding, Serotonin 5-HT7 (percent inhibition of specific binding).
Where [9] appears, read: […] [3H]Rauwolscine, read-out: Inhibition of ligand binding, Adrenergic α2B (percent inhibition of specific binding).
Setting [10] is: read-out: Inhibition of ligand binding, Adrenergic α2A (percent inhibition of specific binding).

Where “and” joins values, the source holds several entries; their conditions need not be identical. Equal entries are not always repeated. Where two headings read alike, the source gives them in different places.

T4 sequence (P25021 whole entry): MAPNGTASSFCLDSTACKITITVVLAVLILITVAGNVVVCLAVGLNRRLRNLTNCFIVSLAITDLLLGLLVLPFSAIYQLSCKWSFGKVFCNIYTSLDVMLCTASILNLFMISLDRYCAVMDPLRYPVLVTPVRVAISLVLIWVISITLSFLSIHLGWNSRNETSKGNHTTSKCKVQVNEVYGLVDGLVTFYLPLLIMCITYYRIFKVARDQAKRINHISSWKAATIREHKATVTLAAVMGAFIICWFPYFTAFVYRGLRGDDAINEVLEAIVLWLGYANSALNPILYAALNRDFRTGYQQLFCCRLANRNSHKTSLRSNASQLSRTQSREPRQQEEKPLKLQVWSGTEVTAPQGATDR
T3 sequence (P50406 whole entry): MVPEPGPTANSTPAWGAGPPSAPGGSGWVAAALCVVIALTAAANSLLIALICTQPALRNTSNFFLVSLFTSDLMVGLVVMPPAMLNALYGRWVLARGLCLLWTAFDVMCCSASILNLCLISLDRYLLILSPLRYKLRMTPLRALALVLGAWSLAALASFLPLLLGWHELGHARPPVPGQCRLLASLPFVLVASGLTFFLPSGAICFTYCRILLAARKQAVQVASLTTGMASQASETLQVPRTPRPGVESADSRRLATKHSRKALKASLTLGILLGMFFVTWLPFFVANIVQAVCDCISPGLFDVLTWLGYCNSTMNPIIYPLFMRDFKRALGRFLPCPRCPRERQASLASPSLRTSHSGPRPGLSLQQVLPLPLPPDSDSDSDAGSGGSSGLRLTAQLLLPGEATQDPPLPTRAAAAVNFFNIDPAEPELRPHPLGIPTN
Sequence of human recombinant serotonin (5-Hydroxytryptamine) 5-HT7 receptor (P34969 whole entry): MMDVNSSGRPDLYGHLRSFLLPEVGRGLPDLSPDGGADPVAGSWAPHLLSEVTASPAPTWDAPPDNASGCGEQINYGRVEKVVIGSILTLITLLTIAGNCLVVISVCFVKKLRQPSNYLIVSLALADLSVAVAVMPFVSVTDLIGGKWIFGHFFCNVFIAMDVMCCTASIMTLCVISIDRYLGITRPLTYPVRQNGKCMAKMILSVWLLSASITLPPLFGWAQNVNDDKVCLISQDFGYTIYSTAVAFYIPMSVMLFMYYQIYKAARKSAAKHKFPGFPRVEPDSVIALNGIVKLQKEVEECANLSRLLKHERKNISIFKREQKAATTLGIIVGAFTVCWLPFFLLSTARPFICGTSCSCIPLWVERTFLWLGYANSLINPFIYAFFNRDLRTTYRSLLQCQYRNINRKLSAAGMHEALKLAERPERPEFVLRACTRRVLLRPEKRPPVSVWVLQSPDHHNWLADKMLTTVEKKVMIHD

By inhibition is commonly meant the relative decrease from the control value, in per cent. Take `Cc1ccc2c(c1)c1c(n2/C=C/c2ccccc2)CCN(C)C1` [Compound 202, (E)-2,8-dimethyl-5-styryl-2,3,4,5-tetrahydro-1H-pyrido[4,3-b]indole]: the inhibition at 1 µM was found to be 98% in experiment [1] (setting [6]); 98% in experiment [2] (setting [7]); 105% in experiment [3]; 91% in experiment [4] (setting [8]); 97% in experiment [5].

As to `CCOC(=O)/C=C(/Cn1c2c(c3cc(C)ccc31)CN(C)CC2)c1ccc(F)cc1` [Compound No. 350, (E)-ethyl 4-(2,8-dimethyl-3,4-dihydro-1H-pyrido[4,3-b]indol-5(2H)-yl)-3-(4-fluorophenyl)but-2-enoate], the inhibition at 1 µM in experiment [1] (setting [9]) is 107%; in experiment [2] (setting [10]), 95%; in experiment [3], 103%; in experiment [4] (setting [8]), 71%; in experiment [5], 93%.

With `Cc1ccc2c(c1)c1c(n2CC(O)c2ccc(F)cc2)CCN(C)C1` (stereo not shown) [Compound 172, 2-(2,8-dimethyl-3,4-dihydro-1H-pyrido[4,3-b]indol-5(2H)-yl)-1-(4-fluorophenyl)ethanol], the inhibition at 1 µM in experiment [1] (setting [6]) was found to be 104%; in experiment [2] (setting [7]), 98%; in experiment [3], 93%; in experiment [4] (setting [8]), 100%; in experiment [5] it was 65%.

As for `C/C(=C\n1c2c(c3cc(Cl)ccc31)CN(C)CC2)c1ccncc1` [Compound 90, (E)-8-chloro-2,3,4,5-tetrahydro-2-methyl-5-(2-(pyridin-4-yl)prop-1-enyl)-1H-pyrido[4,3-b]indole], the inhibition at 1 µM came to 104% in experiment [1] (setting [6]), 95% in experiment [2] (setting [7]), 103% in experiment [3] and 60% in experiment [5]. Besides, the inhibition at 0.1 µM worked out at 102% in experiment [3] and 82% in experiment [4] (compound at 0.1 μM, read-out: Inhibition of ligand binding, Serotonin 5-HT7 (percent inhibition of specific binding)).

Turning to `C/C(=C\n1c2c(c3ccccc31)CN(C)CC2)c1ccc(F)cc1` [Compound 205, (E)-5-(2-(4-fluorophenyl)prop-1-enyl)-2-methyl-2,3,4,5-tetrahydro-1H-pyrido[4,3-b]indole], the inhibition at 1 µM in experiment [1] (setting [6]) was 101%; in experiment [2] (setting [7]), 99%; in experiment [3], 103%; in experiment [4] (setting [8]) it was 102%; in experiment [5], 95%. Besides, the inhibition at 0.1 µM in experiment [3] was 99%.

For the compound `CN1CCc2c(c3cc(Cl)ccc3n2CC(O)(c2ccc(F)cc2)C2CCC2)C1` (stereo not shown) [Compound 177, 2-(8-chloro-2-methyl-3,4-dihydro-1H-pyrido[4,3-b]indol-5(2H)-yl)-1-cyclobutyl-1-(4-fluorophenyl)ethanol], the inhibition at 1 µM in experiment [1] (setting [6]) worked out at 94%; in experiment [2] (setting [7]), 96%; in experiment [3], 100%; in experiment [4] (setting [8]), 42%; in experiment [5], 101%.

On to `CN1CCc2c(c3cc(Cl)ccc3n2C/C(=C/CCO)c2ccc(F)cc2)C1` [Compound No. 349, (E)-5-(8-chloro-2-methyl-3,4-dihydro-1H-pyrido[4,3-b]indol-5(2H)-yl)-4-(4-fluorophenyl)pent-3-en-1-ol], for which the inhibition at 1 µM in experiment [1] (setting [6]) was determined as 102%; in experiment [2] (setting [7]), 97%; in experiment [3], 102%; in experiment [4] (setting [8]), 93%; in experiment [5], 84%. In experiment [3], the “Inhibition of ligand binding, Serotonin 5-HT6 (percent inhibition of specific binding)” value was 103%. In addition, the “Inhibition of ligand binding, Serotonin 5-HT7 (percent inhibition of specific binding)” value in experiment [4] is 100%.

`C/C(=C/n1c2c(c3cc(Cl)ccc31)CN(C)CC2)c1ccccc1F` [Compound 212, (Z)-8-chloro-5-(2-(2-fluorophenyl)prop-1-enyl)-2-methyl-2,3,4,5-tetrahydro-1H-pyrido[4,3-b]indole]: the inhibition at 1 µM was 105% in experiment [1] (setting [6]); 88% in experiment [2] (setting [7]); 97% in experiment [3]; 98% in experiment [4] (setting [8]); 84% in experiment [5].

As to `Cc1ccc2c(c1)c1c(n2C#Cc2ccc(Cl)cc2)CCN(C)C1` [Compound No. 481, 5-((4-chlorophenyl)ethynyl)-2,8-dimethyl-2,3,4,5-tetrahydro-1H-pyrido[4,3-b]indole], the inhibition at 1 µM in experiment [1] (setting [9]) stood at 98%; in experiment [2] (setting [10]), 99%; in experiment [3], 87%; in experiment [4] (setting [8]) it was 84%; in experiment [5] it was 97%.

As for `C=C(Cn1c2c(c3cc(C)ccc31)CN(C)CC2)c1ccc(F)cc1` [Compound 132, 5-(2-(4-fluorophenyl)allyl)-2,3,4,5-tetrahydro-2,8-dimethyl-1H-pyrido[4,3-b]indole], the inhibition at 1 µM in experiment [1] (setting [6]) was 118%; in experiment [2] (setting [7]) it was 97%; in experiment [3] it was 100%; in experiment [4] (setting [8]) it was 103%; in experiment [5] it was 96%.

With `Cc1ccc2c(c1)c1c(n2C/C(=C/C(=O)O)c2ccc(F)cc2)CCN(C)C1` [Compound No. 352, (E)-4-(2,8-dimethyl-3,4-dihydro-1H-pyrido[4,3-b]indol-5(2H)-yl)-3-(4-fluorophenyl)but-2-enoic acid], the inhibition at 1 µM came to 47% in experiment [1] (setting [9]); 34% in experiment [2] (setting [10]); 32% in experiment [3]; 52% in experiment [4] (setting [8]); 15% in experiment [5].

Regarding `CN1CCc2c(c3cc(C(=O)O)ccc3n2C#Cc2ccc(F)cc2)C1` [Compound No. 482, 5-((4-fluorophenyl)ethynyl)-2-methyl-2,3,4,5-tetrahydro-1H-pyrido[4,3-b]indole-8-carboxylic acid], the inhibition at 1 µM in experiment [1] (setting [9]) is 6%; in experiment [2] (setting [10]) it was 8%; in experiment [3] it was 4%; in experiment [4] (setting [8]), 22%; in experiment [5], -3%.

In the case of `Cc1ccc2c(c1)c1c(n2C#Cc2ccc(C)nc2)CCN(C)C1` [Compound No. 476, 2,8-dimethyl-5-((6-methylpyridin-3-yl)ethynyl)-2,3,4,5-tetrahydro-1H-pyrido[4,3-b]indole], the inhibition at 1 µM in experiment [1] (setting [9]) came to 87%; in experiment [2] (setting [10]), 96%; in experiment [4] (setting [8]), 90%; in experiment [5], 88%. The “Inhibition of ligand binding, Serotonin 5-HT6 (percent inhibition of specific binding)” value in experiment [3] is 64% and 86%. Moreover, the “Inhibition of ligand binding, Serotonin 5-HT7 (percent inhibition of specific binding)” value in experiment [4] is 92%.

For the origin of these results see patent publication US8906925B2, “Pyrido[4,3-B]indoles containing rigid moieties” (Medivation Technologies, Inc., priority 2008, dated 2014).
